Measurements from patent US8431565B2 (priority 2007, dated 2013).

Columns and labels:
[1] = system: Male ICR mice; experiment: Inhibition of acetic acid-induced writhing; assay type: in vivo, mouse; settings: subcutaneous 3, 10 and 30 mg/kg, FIG. 2
From the text: 12: 525-562; Ramabadran and Bansinath (1986) Pharm. Res. 3: 263-270]. Intraperitoneal administration of dilute acetic acid solution causes a writhing behavior in mice. A writhe is defined as a contraction of the abdominal muscles accompanied by an extension of the forelimbs and elongation of the body. The number of writhes observed in the presence and absence of test compounds is counted to determine the analgesic activity of the compounds.
Male ICR mice, 20-40 grams in weight, were weighed and placed in individual observation chambers (usually a 4000 ml beaker) with a fine layer of rodent bedding at the bottom. To determine the activity and potency of test compounds, different doses of the compound solution or vehicle were injected subcutaneously in the back of the neck 30 minutes prior to administration of acetic acid solution. After administration of the compound or vehicle control, mice were returned to their individual observation chambers awaiting the intraperitoneal administration of acetic acid solution. Thirty minutes later, 10 ml/kg of a 0.6% (v/v) acetic acid solution was then injected into the right lower quadrant of the abdomen. […] The number of writhes was counted over a 15-min period starting from the time of acetic acid injection. Raw data were analyzed using a one-way ANOVA followed by Dunnett's post-tests. […]

[2] = system: rats; experiment: Carrageenan model of acute inflammation; assay type: in vivo; settings: rat
[3] = system: rats; experiment: Spinal nerve ligation (SNL) model of neuropathic pain; assay type: in vivo; settings: rat; oral 3, 10 and 30 mg/kg; FIG. 4
Procedure: The SNL model (Kim and Chung 1992) was used to induce chronic neuropathic pain in rats. The rats were anesthetized with isoflurane, the left L5 transverse process was removed, and the L5 and L6 spinal nerves were tightly ligated with 6-0 silk suture. The wound was then closed with internal sutures and external staples. Following at least seven days post SNL, baseline, post-injury and post-treatment values for non-noxious mechanical sensitivity were evaluated using eight Semmes-Weinstein filaments (Stoelting, Wood Dale, Ill., USA) with varying stiffness (0.4, 0.7, 1.2, 2.0, 3.6, 5.5, 8.5, and 15 g) according to the up-down method (Chaplan et al. 1994). Animals were placed on a perforated metallic platform and allowed to acclimate to their surroundings for a minimum of thirty minutes before testing. The mean and standard error of the mean (SEM) were determined for the injured paw in each treatment group. Since this stimulus is normally not considered painful, significant injury-induced increases in responsiveness in this test are interpreted as a measure of mechanical allodynia. The dose which elicited 50% attenuation of mechanical hypersensitivity (ED50) was determined using linear regression analysis. Results obtained after oral administration of compound 317 at 3, 10 and 30 mg/kg and with compound 366 at 1, 3 and 10 mg/kg are shown in FIG. 4.

Structure (SMILES)	inhibition of acetic acid-induced writhing [1]	inhibition of carrageenan-induced hyper-sensitivity ([2]; sub-cutaneous 3, 10 and 30 mg/kg, FIG. 3A)	response in the neuropathic pain model [3]	inhibition of carrageenan-induced hyper-sensitivity ([2]; oral 1, 3 and 10 mg/kg, FIG. 3B)
CNC(=O)[C@@H](NC(=O)c1nc(-c2ccccc2)n2c1CN(C)CCC2)C(C)(C)C [Compound 317, (S)—N-(3,3-dimethyl-1-(methylamino)-1-oxobutan-2-yl)-8-methyl-3-phenyl-6,7,8,9-tetrahydro-5H-imidazo[1,5-a][1,4]diazepine-1-carboxamide]	dose response in the inhibition of acetic acid-induced writhing	dose response in the inhibition of carrageenan-induced hyper-sensitivity	dose response in the neuropathic pain model	
CNC(=O)[C@@H](NC(=O)c1nc(-c2ccc(Cl)cc2F)n2c1CN(C)CCC2)C(C)(C)C [Compound 366, (S)-3-(4-chloro-2-fluorophenyl)-N-(3,3-dimethyl-1-(methylamino)-1-oxobutan-2-yl)-8-methyl-6,7,8,9-tetrahydro-5H-imidazo[1,5-a][1,4]diazepine-1-carboxamide]	dose response in the inhibition of acetic acid-induced writhing		dose response in the neuropathic pain model	dose response in the inhibition of carrageenan-induced hyper-sensitivity
